Data from patent publication US10821117B2, “Estrogen therapy for brain gray matter atrophy and associated disability” (The Regents of the University of California, priority 2014, dated 2020).

Tested on: relapsing remitting multiple sclerosis patients
Assay: Brain MRI enhancing lesions and brain volumes (pairwise Jacobian integration)
Type: in vivo, human
Method: Linear mixed effects model was carried out to compare the percent change in whole gray matter and cortical gray matter between treatment groups. For the exploratory endpoints of EDSS, PASAT, and brain volume measures, linear mixed effects model was used to compare treatment groups at 12 and 24 months. Linear mixed effects model was carried out to evaluate the association between PASAT change and percent brain volume change.
• For Number of Enhancing Lesions, the data in this column are E+GA vs. P+GA mean of lesions number ratio (95% CI) and p-value based on mixed effect negative binomial regression model. • For Lesion Activity on Brain MRI, the data in this column are E+GA vs. P+GA odds ratio (95% CI) and p-value based on mixed effect logistic regression model. MRI Methodologies
Dual-echo fast spin echo: TR10000, TE12/95, 50 slices, 1×1×3 mm. Fluid attenuated inversion recovery (FLAIR): TR10380, TE88, T188, T12500, 50 slices, 1×1×3 mm. Minor changes were allowed to accommodate different platforms and field strengths at each site. MRI data in Dicom format were fully anonymized prior to transfer and then uploaded to the central MRI reading center database. Prior to study onset, each site provided a dummy scan utilizing the standardized sequences for review by the central MRI reading center to verify scan quality and fidelity. Quality control was maintained at each site using standard procedures for clinical scanners (daily phantoms, stability testing). Quarterly phantoms were collected from 12 of the 15 sites, most using the standard American College of Radiology (ACR) phatom. One site upgraded from a Siemens 1.5T to a 3.0T in November 2013, resulting in the acquisition of one month 24 scan on the new scanner. One site upgraded from a Phillips Achieva 3.0T to a Pillips Intera 3.0T after the first subject completed month 24. All subsequent studies were performed on the Intera.
MRI brain, whole gray matter, whole white matter and cortical gray matter volumes were determined using a pairwise Jacobian integration (PJI) method. Pre-processing for structural T1-weighted images included 1) N3 non-uniformity correction, 2) histogram-based intensity normalization, 3) linear standard space registration using ICBM 2009c nonlinear symmetric template, 4) patch-based brain extraction, and 5) lesion-inpainting. Inputs to PJI were a pair of baseline and follow-up pre-processed structural T1-weighed images. The PJI consisted of 1) linear skull-constrained symmetric registration, 2) halfway transformation and resampling, 3) nonlinear symmetric registration using ANTS, and 4) voxelwise Jacobian determinant calculation on the warp field. Whole gray matter and whole white matter tissue masks were generated by SPM8 Segment function. Additional nonlocal means denoising was applied. For whole brain tissue masks, the whole gray matter and whole white matter masks were combined. For cortical gray matter mask, a standard cortical mask was nonlinearly transformed and merged with gray matter mask. The standard template was the ICBM (ICBM 2009c nonlinear symmetric version), and the nonlinear registration was performed by ANTS. Finally, the Jacobian determinants were averaged within the masks for percent volume change in cortical gray matter, whole gray matter, whole white matter, and whole brain.

[1] = negative value indicates improvement
[2] = negative value indicates worsening

glatiramer acetate [Placebo + GA]
Lesion activity on Brain MRI - proportion of patients with enhancing lesion, Month 12 % (95% CI) (Month 12): 21.0 (10.8-31.1) %
Lesion activity on Brain MRI - proportion of patients with enhancing lesion, Month 24 % (95% CI) (Month 24): 14.6 (5.2-23.9) %
cortical gray matter volume change from baseline (month 12, FIG. 7C, mean percent change from baseline): −0.74%
whole gray matter volume change from baseline (month 12, FIG. 7D, mean percent change from baseline): −0.68%
Enhancing Lesion Volume, Change from baseline at Mon 12, Mean ± SD [1]: −18.7 ± 184
Enhancing Lesion Volume, Change from baseline at Mon 12, Median [1]: 0
Enhancing Lesion Volume, Change from baseline at Mon 24, Mean ± SD [1]: −34.0 ± 120
Enhancing Lesion Volume, Change from baseline at Mon 24, Median [1]: 0
Number of Enhancing Lesions, Change from baseline to Mon 12, Mean ± SD [1]: −0.5 ± 1.8
Number of Enhancing Lesions, Change from baseline to Mon 12, Median [1]: 0
Number of Enhancing Lesions, Change from baseline to Mon 24, Mean ± SD [1]: −0.5 ± 2.4
Number of Enhancing Lesions, Change from baseline to Mon 24, Median [1]: 0
Cortical gray matter volume % change from baseline at Month 12, Mean ± SD [2]: −0.72 ± 0.80%
Cortical gray matter volume % change from baseline at Month 12, Median [2]: −0.67%
Cortical gray matter volume % change from baseline at Month 24, Mean ± SD [2]: −1.04 ± 0.87%
Cortical gray matter volume % change from baseline at Month 24, Median [2]: −0.93%
White matter volume % change from baseline at Month 12, Mean ± SD [2]: −0.20 ± 0.83%
White matter volume % change from baseline at Month 12, Median [2]: −0.11%
White matter volume % change from baseline at Month 24, Mean ± SD [2]: −0.54 ± 1.12%
White matter volume % change from baseline at Month 24, Median [2]: −0.56%
Whole Brain volume % change from baseline at Month 12, Mean ± SD [2]: −0.50 ± 0.64%
Whole Brain volume % change from baseline at Month 12, Median [2]: −0.43%
Whole Brain volume % change from baseline at Month 24, Mean ± SD [2]: −0.78 ± 0.73%
Whole Brain volume % change from baseline at Month 24, Median [2]: −0.91%
Whole gray matter volume % change from baseline at Month 12, Mean ± SD [2]: −0.69 ± 0.71%
Whole gray matter volume % change from baseline at Month 12, Median [2]: −0.68%
Whole gray matter volume % change from baseline at Month 24, Mean ± SD [2]: −0.95 ± 0.76%
Whole gray matter volume % change from baseline at Month 24, Median [2]: −0.93%
